biological target: Prostaglandin E2 receptor EP4 subtype (Homo sapiens, UniProt P35408); assay: hEP4 cAMP Assay
Sequence (P35408 whole entry): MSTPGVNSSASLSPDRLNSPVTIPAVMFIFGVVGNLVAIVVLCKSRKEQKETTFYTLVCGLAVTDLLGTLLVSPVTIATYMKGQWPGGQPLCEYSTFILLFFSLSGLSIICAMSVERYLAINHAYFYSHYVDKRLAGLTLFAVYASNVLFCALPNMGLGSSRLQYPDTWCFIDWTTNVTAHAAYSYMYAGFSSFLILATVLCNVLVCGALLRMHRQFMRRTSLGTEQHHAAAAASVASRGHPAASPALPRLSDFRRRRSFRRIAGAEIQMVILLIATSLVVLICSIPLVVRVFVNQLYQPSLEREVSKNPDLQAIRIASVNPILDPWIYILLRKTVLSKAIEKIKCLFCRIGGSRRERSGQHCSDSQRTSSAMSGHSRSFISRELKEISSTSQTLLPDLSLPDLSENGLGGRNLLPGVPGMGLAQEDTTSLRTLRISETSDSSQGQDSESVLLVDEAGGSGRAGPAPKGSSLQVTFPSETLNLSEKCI
Description: Cells are counted washed and resuspended in assay buffer (AB; HBSS, 20 mM HEPES, 0.2% BSA; 2 mM IBMX). […] Plate is pre-incubated 45 minutes at RT. Subsequently, 2.5 microliters of PGE2 (final conc. 6 nM) are transferred into the assay plate. Plate is incubated 30 minutes at RT. […] For each compound concentration the percentage of cAMP compared to DMSO control value as average ±STDEV (each concentration is measured in duplicate) is calculated.

Compound	IC50
CCOc1cc2c(cc1CCNc1cc(-c3ccc(CC(=O)O)c(CC(C)C)c3)ncn1)OCCO2 [US11839613, Example 412]	79 nM
CC(C)Cc1cc(-c2cc(NCCc3ccc4sccc4c3F)ncn2)ccc1C(=O)O [US11839613, Example 413]	38 nM
CC(C)Cc1cc(-c2cc(NCCc3cc(F)c4sccc4c3)ncn2)ccc1C(=O)O [US11839613, Example 414]	88 nM
COc1c(CCNc2cc(-c3ccc(C(=O)O)c(CC(C)C)c3)ncn2)cc2ccsc2c1F [US11839613, Example 415]	57 nM
CCOc1cc2c(cc1CCNc1cc(-c3ccc(C(=O)O)c(CC(C)C)c3)ncn1)OCCO2 [US11839613, Example 417]	240 nM
CCOc1cc(-c2cc(NCCc3ccc4sccc4c3F)ncn2)ccc1OCCC(=O)O [US11839613, Example 421]	27 nM
CCOc1cc(-c2cc(NCCc3cc(F)c4sccc4c3)ncn2)ccc1OCCC(=O)O [US11839613, Example 422]	18 nM
CCOc1cc(-c2cc(NCCc3c(OC)cc4ccccc4c3C)ncn2)ccc1OCCC(=O)O [US11839613, Example 423]	6 nM
CC(C)Oc1cc(-c2cc(NCCc3ccc4sccc4c3F)ncn2)ccc1CC(=O)O [US11839613, Example 424]	89 nM
CCOc1cc2c(cc1CCNc1cc(-c3ccc(CC(=O)O)c(OC(C)C)c3)ncn1)OCCO2 [US11839613, Example 425]	356 nM
CSc1cc(-c2cc(NCCc3ccc4scc(Cl)c4c3)ncn2)ccc1C(=O)O [US11839613, Example 429]	38 nM
O=C(O)c1ccc(-c2cc(NCCc3ccc4scc(Cl)c4c3)ncn2)cc1OC1CCC1 [US11839613, Example 430]	40 nM
CCOc1cc(-c2cc(NCCc3ccc4scc(Cl)c4c3)ncn2)ccc1CC(=O)O [US11839613, Example 431]	43 nM
COc1cc2c(c(C)c1CCNc1cc(-c3ccc(C(=O)O)c(OC(C)C)c3)ncn1)OCCO2 [US11839613, Example 432]	72 nM
CCOc1cc(-c2cc(NCCc3cc4c(cc3OC(F)F)OCCO4)ncn2)sc1C(=O)O [US11839613, Example 433]	13 nM
CCOc1cc(-c2cc(NCCc3c(OC)cc4c(c3F)OCCO4)ncn2)ccc1C(=O)O [US11839613, Example 435]	80 nM
COc1cc(-c2cc(NCCc3ccc4sccc4c3F)ncn2)ccc1OCCC(=O)O [US11839613, Example 437]	37 nM
COc1cc(-c2cc(NCCc3cc(F)c4sccc4c3)ncn2)ccc1OCCC(=O)O [US11839613, Example 438]	29 nM
C#Cc1cc2c(cc1CCNc1cc(-c3ccc(C(=O)O)c(OCC)c3)ncn1)OCCO2 [US11839613, Example 439]	139 nM
C#Cc1cc2c(cc1CCNc1cc(-c3ccc(CC(=O)O)c(CCC)c3)ncn1)OCCO2 [US11839613, Example 440]	65 nM
COc1cc2c(c(C)c1CCNc1cc(-c3ccc(CC(=O)O)c(OC(F)F)c3)ncn1)OCCO2 [US11839613, Example 441]	31 nM
COc1cc2ccccc2c(C)c1CCNc1cc(-c2ccc(CC(=O)O)c(OC(F)F)c2)ncn1 [US11839613, Example 443]	43 nM
CCc1cc(-c2cc(NCCc3c(OC)cc4c(c3C)OCCO4)ncn2)ccc1CC(=O)O [US11839613, Example 444]	80 nM
CCc1cc(-c2cc(NCCc3c(OC)cc4ccccc4c3C)ncn2)ccc1CC(=O)O [US11839613, Example 445]	104 nM
CCc1cc(-c2cc(NCCc3c(OC)cc4ccccc4c3C)ncn2)ccc1C(=O)O [US11839613, Example 446]	98 nM
COc1cc2ccccc2c(C)c1CCNc1cc(-c2ccc(C(=O)O)c(OC3CC3)c2)ncn1 [US11839613, Example 448]	26 nM
O=C(O)c1ccc(-c2cc(NCCc3cc(F)c4sccc4c3)ncn2)cc1OC1CC1 [US11839613, Example 449]	21 nM
COc1cc2c(cc1CCNc1cc(-c3ccc(CC(=O)O)c(OC(F)(F)F)c3)ncn1)OCCO2 [US11839613, Example 450]	80 nM

biological target: Prostaglandin E2 receptor EP2 subtype (Homo sapiens, UniProt P43116); assay: hEP2 cAMP Assay
Description: Cells are counted washed and resuspended in assay buffer (AB; HBSS, 20 mM HEPES, 0.2% BSA; 2 mM IBMX). […] Plate is pre-incubated 45 minutes at RT. […] Plate is incubated 30 minutes at RT.

Chain of Prostaglandin E2 receptor EP2 subtype (P43116 whole entry): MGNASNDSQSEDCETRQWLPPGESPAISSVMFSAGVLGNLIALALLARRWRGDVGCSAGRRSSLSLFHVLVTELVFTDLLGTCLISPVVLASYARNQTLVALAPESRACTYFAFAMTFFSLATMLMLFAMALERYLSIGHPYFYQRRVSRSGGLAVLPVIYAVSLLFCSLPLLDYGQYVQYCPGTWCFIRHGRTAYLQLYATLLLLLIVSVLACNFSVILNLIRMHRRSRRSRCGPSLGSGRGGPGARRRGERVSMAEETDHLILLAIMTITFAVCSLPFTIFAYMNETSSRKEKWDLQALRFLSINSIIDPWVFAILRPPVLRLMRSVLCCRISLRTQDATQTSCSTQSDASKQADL

Compound	IC50
CCOc1cc2c(cc1CCNc1cc(-c3ccc(CC(=O)O)c(CC(C)C)c3)ncn1)OCCO2 [US11839613, Example 412]	57 nM
CC(C)Cc1cc(-c2cc(NCCc3ccc4sccc4c3F)ncn2)ccc1C(=O)O [US11839613, Example 413]	119 nM
CC(C)Cc1cc(-c2cc(NCCc3cc(F)c4sccc4c3)ncn2)ccc1C(=O)O [US11839613, Example 414]	505 nM
COc1c(CCNc2cc(-c3ccc(C(=O)O)c(CC(C)C)c3)ncn2)cc2ccsc2c1F [US11839613, Example 415]	106 nM
CCOc1cc2c(cc1CCNc1cc(-c3ccc(C(=O)O)c(CC(C)C)c3)ncn1)OCCO2 [US11839613, Example 417]	31 nM
CCOc1cc(-c2cc(NCCc3ccc4sccc4c3F)ncn2)ccc1OCCC(=O)O [US11839613, Example 421]	247 nM
CCOc1cc(-c2cc(NCCc3cc(F)c4sccc4c3)ncn2)ccc1OCCC(=O)O [US11839613, Example 422]	492 nM
CCOc1cc(-c2cc(NCCc3c(OC)cc4ccccc4c3C)ncn2)ccc1OCCC(=O)O [US11839613, Example 423]	230 nM
CC(C)Oc1cc(-c2cc(NCCc3ccc4sccc4c3F)ncn2)ccc1CC(=O)O [US11839613, Example 424]	782 nM
CCOc1cc2c(cc1CCNc1cc(-c3ccc(CC(=O)O)c(OC(C)C)c3)ncn1)OCCO2 [US11839613, Example 425]	226 nM
CSc1cc(-c2cc(NCCc3ccc4scc(Cl)c4c3)ncn2)ccc1C(=O)O [US11839613, Example 429]	66 nM
O=C(O)c1ccc(-c2cc(NCCc3ccc4scc(Cl)c4c3)ncn2)cc1OC1CCC1 [US11839613, Example 430]	185 nM
CCOc1cc(-c2cc(NCCc3ccc4scc(Cl)c4c3)ncn2)ccc1CC(=O)O [US11839613, Example 431]	460 nM
COc1cc2c(c(C)c1CCNc1cc(-c3ccc(C(=O)O)c(OC(C)C)c3)ncn1)OCCO2 [US11839613, Example 432]	10 nM
CCOc1cc(-c2cc(NCCc3cc4c(cc3OC(F)F)OCCO4)ncn2)sc1C(=O)O [US11839613, Example 433]	57 nM
CCOc1cc(-c2cc(NCCc3c(OC)cc4c(c3F)OCCO4)ncn2)ccc1C(=O)O [US11839613, Example 435]	28 nM
COc1cc(-c2cc(NCCc3ccc4sccc4c3F)ncn2)ccc1OCCC(=O)O [US11839613, Example 437]	227 nM
COc1cc(-c2cc(NCCc3cc(F)c4sccc4c3)ncn2)ccc1OCCC(=O)O [US11839613, Example 438]	708 nM
C#Cc1cc2c(cc1CCNc1cc(-c3ccc(C(=O)O)c(OCC)c3)ncn1)OCCO2 [US11839613, Example 439]	33 nM
C#Cc1cc2c(cc1CCNc1cc(-c3ccc(CC(=O)O)c(CCC)c3)ncn1)OCCO2 [US11839613, Example 440]	25 nM
COc1cc2c(c(C)c1CCNc1cc(-c3ccc(CC(=O)O)c(OC(F)F)c3)ncn1)OCCO2 [US11839613, Example 441]	21 nM
COc1cc2ccccc2c(C)c1CCNc1cc(-c2ccc(CC(=O)O)c(OC(F)F)c2)ncn1 [US11839613, Example 443]	549 nM
CCc1cc(-c2cc(NCCc3c(OC)cc4c(c3C)OCCO4)ncn2)ccc1CC(=O)O [US11839613, Example 444]	22 nM
CCc1cc(-c2cc(NCCc3c(OC)cc4ccccc4c3C)ncn2)ccc1CC(=O)O [US11839613, Example 445]	525 nM
CCc1cc(-c2cc(NCCc3c(OC)cc4ccccc4c3C)ncn2)ccc1C(=O)O [US11839613, Example 446]	160 nM
COc1cc2ccccc2c(C)c1CCNc1cc(-c2ccc(C(=O)O)c(OC3CC3)c2)ncn1 [US11839613, Example 448]	55 nM
O=C(O)c1ccc(-c2cc(NCCc3cc(F)c4sccc4c3)ncn2)cc1OC1CC1 [US11839613, Example 449]	131 nM
COc1cc2c(cc1CCNc1cc(-c3ccc(CC(=O)O)c(OC(F)(F)F)c3)ncn1)OCCO2 [US11839613, Example 450]	165 nM

Source: BindingDB's records for patent US11839613 (Idorsia Pharmaceuticals, 2023)
